Assay [1] has as its system C. albicans wild type CAP1/CAP1 strain, UnoPP-1. Type of assay: cell-based, Candida albicans. As to conditions: SLAD media, 10 mM, 37° C.
Assay [2] concerns C. albicans pde2/pde2 mutant (BPS4). To be noted: for relative growth (CFU vs YNB alone) of the pde2/pde2 mutant: 6 h; for doubling time of pde2/pde2 mutants: 30° C.; for swollen pde2/pde2 mutant cells: YNB, 6 hours. As for the experimental part: (§1) C. albicans strains were grown in YNB at 30° C. to middle-logarithmic phase, and then an equal number of cells were subcultured into YNB or YNB containing 4 mM and 40 mM cAMP and grown for 6 to 9 hours. Every hour during incubation, optical density and cell number/ml of cultures were measured by a photoelectric colorimeter (Klett-Summerson, Klett MFG. Co., Inc, NY, N.Y.) and hemacytometer, respectively. The percent of dead cells was determined by staining with 0.1% methylene blue (Sigma, St. Louis, Mo.). Also, cell morphologies were observed by microscopy. After a 6-hour incubation of each strain with YNB containing the indicated amounts of exogenous cAMP, culture samples were serially diluted, spread on YPD plates, and incubated for 2 days to determine the number of colony forming units (CFU). The percent relative growth was calculated by using the following formula: [(CFU of a strain incubated for 6 h in YNB having an indicated concentration of cAMP)/(CFU of the strain incubated for 6 h in YNB only)]×100%.

Assay [3] relates to C. albicans strains with a wild type PDE2 gene (UnoPP-1, BPS1, BPS9). To be noted: YNB, 4 mM and 40 mM cAMP. The protocol: as §1
Assay [4] relates to C. albicans cap1/cap1 mutant strain, CAC1-1A. The assay can be described thus: Filamentous growth in SLAD agar with exogenous cAMP or dbcAMP. Type of assay: cell-based, Candida albicans. To be noted: SLAD media, 10 mM, 37° C.; for colony morphology / filamentous growth of the cap1/cap1 mutant: 5 days. As for the experimental part:
(§2) To determine the effect of exogenous cAMP on bud-hypha transitions and filamenious growth of cap1/cap1 mutants, stationary phase yeasts were induced to form germ tubes and hyphae in liquid M199+serum (10^6 cells/ml) or in SLAD agar plates containing 10 mM cAMP or dbcAMP (Sigma). M199+serum containing cAMP or dbcAMP were incubated at 37° C. for 20 h and the frequency of germ tube formation was measured at various time points. SLAD plates containing cAMP or dbcAMP were incubated at 37° C. for 5 days, and filamentous growth was monitored daily.

For assay [5], the system named is PDE2 mRNA in C. albicans cap1/cap1 mutant. As to conditions: cAMP 10 mM, germ tube induction conditions, data not shown.
The test system of assay [6] is C. albicans cap1/cap1 mutant strain, CAC1-1A. The assay can be described thus: Bud-hypha transitions in liquid M199+serum with exogenous cAMP or dbcAMP. Type of assay: cell-based, Candida albicans. As to conditions: 10 mM. The protocol: as §2
Assay [7] has as its system C. albicans cap1/cap1 pde2/pde2 mutant (BPS18). The assay can be described thus: Filamentation in SLAD agar with or without dbcAMP. It is filed as cell-based, Candida albicans. To be noted: SLAD agar media, 10 mM dbcAMP.
Procedure: Filamentous growth of each strain was induced at 37° C. for 6 days in solid Spider media (a11-15) and 2% agar media containing 4% bovine calf serum (a16-20).
For growth analysis in agar-containing media, stationary-phase yeasts were mixed (200 cells/25 ml of medium) with liquefied agar Spider medium (Liu et al., 266 SCIENCE 1723-1726 (1994)), SLAD (synthetic low ammonium dextrose)(Csank et al., 66 INFECT. IMMUN. 2713-2721 (1998)), and 2% agar containing 4% bovine calf serum (Lo et al., 90 CELL 939-949 (1997).

Read-outs that look alike come from different tables or passages of the source.

Turning to `Nc1ncnc2c1ncn2[C@@H]1O[C@@H]2COP(=O)(O)O[C@H]2[C@H]1O` [cAMP, cyclic AMP], the “filamentous growth of the wild type strain” value in assay [1] is “slightly enhanced”. The “relative growth (CFU vs YNB alone) of the pde2/pde2 mutant” value was “about 70%” in assay [2] (YNB containing 4 mM cAMP) and approximately 40% in assay [2] (YNB containing 40 mM cAMP). The “doubling time of pde2/pde2 mutants” value in assay [2] (YNB with 4 mM cAMP) is 3.7 h; in assay [2] (YNB with 40 mM cAMP) it was 4.8 h. Further, the “swollen pde2/pde2 mutant cells” value in assay [2] (4 mM cAMP) was ~50 % of cells; in assay [2] (40 mM cAMP) it was “greater than 90 % of cells”. Further, the “relative growth rate of strains with a wild type PDE2 gene” value in assay [3] is recorded as “not affected”. Further, the “timing of onset of filamentous growth of the cap1/cap1 mutant” value in assay [4] is reported as “two”. The “colony morphology / filamentous growth of the cap1/cap1 mutant” value in assay [4] is recorded as “dramatically altered the colony morphology”. Also, the “PDE2 mRNA expression in the cap1/cap1 mutant” value in assay [5] is recorded as “the same with or without exogenous cAMP”.
For the molecule `CCCC(=O)Nc1ncnc2c1ncn2[C@@H]1O[C@@H]2COP(=O)(O)O[C@H]2[C@H]1OC(=O)CCC` [dbcAMP, dibutyryl cAMP], in assay [6] (37° C., 10^6 cells/ml), the “hypha formation of the cap1/cap1 mutant in liquid media” value is on record as “enhanced”. In addition, the “pseudohyphae detected in the presence vs absence of dbcAMP” value in assay [6] (at 3 h) is given as “twice as many pseudohyphae”. The “filamentous growth of the wild type strain” value in assay [1] is “slightly enhanced”. Further, the “filamentation of the cap1/cap1 pde2/pde2 mutant” value in assay [7] was “increase filamentation of the cap1/cap1 pde2/pde2 mutant to near wild type levels”. Besides, in assay [4], the “timing of onset of filamentous growth of the cap1/cap1 mutant” value is listed as “two” and the “colony morphology / filamentous growth of the cap1/cap1 mutant” value is recorded as “dramatically altered the colony morphology”.

The values are drawn from patent publication US7270975B2, “Methods for regulating bud-hypha transitions and cAMP levels in Candida albicans” (priority 2001, dated 2007).
